Source: ChEMBL document CHEMBL5257023, “Identification of leads for antiproliferative activity on MDA-MB-435 human breast cancer cells through pharmacophore and CYP1A1-mediated metabolism” (Eur J Med Chem, 2016)
pIC50: −log10 of the molar value.

Key:
MDA-MB-468 [1] = test: Anticancer activity against human MDA-MB-468 cells assessed as inhibition of cell growth incubated for 48 hrs by SRB assay; type: functional; details: for CC50: read-out: LC50 (the source's name)
MCF7 [2] = test: Anticancer activity against human MCF7 cells assessed as inhibition of cell growth incubated for 48 hrs by SRB assay; type: functional; details: for CC50: read-out: LC50 (the source's name)
MDA-MB-435 [3] = test: Anticancer activity against human MDA-MB-435 cells assessed as inhibition of cell growth incubated for 48 hrs by SRB assay; type: functional
NCI-H226 [4] = test: Anticancer activity against human NCI-H226 cells assessed as inhibition of cell growth incubated for 48 hrs by SRB assay; type: functional
MDA-MB-468 [5] = test: Anticancer activity against human MDA-MB-468 cells assessed as cell growth at 0.1 uM incubated for 48 hrs by SRB assay; type: functional; details: read-out: Activity
MDA-MB-468 [6] = test: Anticancer activity against human MDA-MB-468 cells assessed as cell growth at 1 uM incubated for 48 hrs by SRB assay; type: functional; details: read-out: Activity
MDA-MB-468 [7] = test: Anticancer activity against human MDA-MB-468 cells assessed as cell growth at 10 uM incubated for 48 hrs by SRB assay; type: functional; details: read-out: Activity
MDA-MB-468 [8] = test: Anticancer activity against human MDA-MB-468 cells assessed as cell growth at 100 uM incubated for 48 hrs by SRB assay; type: functional; details: read-out: Activity
MCF7 [9] = test: Anticancer activity against human MCF7 cells assessed as cell growth at 0.1 uM incubated for 48 hrs by SRB assay; type: functional; details: read-out: Activity
MCF7 [10] = test: Anticancer activity against human MCF7 cells assessed as cell growth at 1 uM incubated for 48 hrs by SRB assay; type: functional; details: read-out: Activity
MCF7 [11] = test: Anticancer activity against human MCF7 cells assessed as cell growth at 10 uM incubated for 48 hrs by SRB assay; type: functional; details: read-out: Activity
MCF7 [12] = test: Anticancer activity against human MCF7 cells assessed as cell growth at 100 uM incubated for 48 hrs by SRB assay; type: functional; details: read-out: Activity
NCI-H226 [13] = test: Anticancer activity against human NCI-H226 cells assessed as cell growth at 0.1 uM incubated for 48 hrs by SRB assay; type: functional; details: read-out: Activity
NCI-H226 [14] = test: Anticancer activity against human NCI-H226 cells assessed as cell growth at 1 uM incubated for 48 hrs by SRB assay; type: functional; details: read-out: Activity
NCI-H226 [15] = test: Anticancer activity against human NCI-H226 cells assessed as cell growth at 10 uM incubated for 48 hrs by SRB assay; type: functional; details: read-out: Activity
NCI-H226 [16] = test: Anticancer activity against human NCI-H226 cells assessed as cell growth at 100 uM incubated for 48 hrs by SRB assay; type: functional; details: read-out: Activity
MDA-MB-435 [17] = test: Anticancer activity against human MDA-MB-435 cells assessed as cell growth at 0.1 uM incubated for 48 hrs by SRB assay; type: functional; details: read-out: Activity
MDA-MB-435 [18] = test: Anticancer activity against human MDA-MB-435 cells assessed as cell growth at 1 uM incubated for 48 hrs by SRB assay; type: functional; details: read-out: Activity
MDA-MB-435 [19] = test: Anticancer activity against human MDA-MB-435 cells assessed as cell growth at 10 uM incubated for 48 hrs by SRB assay; type: functional; details: read-out: Activity
MDA-MB-435 [20] = test: Anticancer activity against human MDA-MB-435 cells assessed as cell growth at 100 uM incubated for 48 hrs by SRB assay; type: functional; details: read-out: Activity
CYP1A1 [21] = target: T1, CYP1A1 (Homo sapiens, UniProt P04798); test: Inhibition of recombinant CYP1A1 (unknown origin) assessed as residual enzyme activity using 7-ethoxyresorufin as substrate at 0.01 uM incubated for 15 mins by resorufin dye based spectrofluorimetry (reference value: 100%); type: ADME; details: recombinant CYP1A1, probe 7-ethoxyresorufin, read-out: Activity
T1 sequence (P04798 whole entry): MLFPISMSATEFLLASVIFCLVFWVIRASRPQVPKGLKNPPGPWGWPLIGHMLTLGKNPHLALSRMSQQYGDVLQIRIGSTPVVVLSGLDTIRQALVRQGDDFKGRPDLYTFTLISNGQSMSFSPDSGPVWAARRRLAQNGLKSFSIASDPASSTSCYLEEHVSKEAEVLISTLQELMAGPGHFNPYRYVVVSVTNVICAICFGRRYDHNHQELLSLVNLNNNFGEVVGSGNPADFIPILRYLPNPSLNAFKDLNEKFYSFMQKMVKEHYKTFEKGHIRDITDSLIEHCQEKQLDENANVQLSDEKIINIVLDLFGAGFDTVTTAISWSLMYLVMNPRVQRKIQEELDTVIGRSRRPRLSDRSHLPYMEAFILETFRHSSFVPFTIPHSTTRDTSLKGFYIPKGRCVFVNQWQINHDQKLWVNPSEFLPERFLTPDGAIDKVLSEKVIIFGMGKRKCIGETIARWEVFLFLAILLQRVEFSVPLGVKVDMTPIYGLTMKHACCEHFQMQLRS

CYP1A1 [22] = target: T1, CYP1A1; test: Inhibition of recombinant CYP1A1 (unknown origin) assessed as residual enzyme activity using 7-ethoxyresorufin as substrate at 0.1 uM incubated for 15 mins by resorufin dye based spectrofluorimetry (reference value: 100%); type: ADME; details: recombinant CYP1A1, probe 7-ethoxyresorufin, read-out: Activity
CYP1A1 [23] = target: T1, CYP1A1; test: Inhibition of recombinant CYP1A1 (unknown origin) assessed as residual enzyme activity using 7-ethoxyresorufin as substrate at 1 uM incubated for 15 mins by resorufin dye based spectrofluorimetry (reference value: 100%); type: ADME; details: recombinant CYP1A1, probe 7-ethoxyresorufin, read-out: Activity
CYP1A1 [24] = target: T1, CYP1A1; test: Inhibition of recombinant CYP1A1 (unknown origin) assessed as residual enzyme activity using 7-ethoxyresorufin as substrate at 10 uM incubated for 15 mins by resorufin dye based spectrofluorimetry (reference value: 100%); type: ADME; details: recombinant CYP1A1, probe 7-ethoxyresorufin, read-out: Activity
CYP1A1 [25] = target: T1, CYP1A1; test: Inhibition of recombinant CYP1A1 (unknown origin) assessed as residual enzyme activity using 7-ethoxyresorufin as substrate at 50 uM incubated for 15 mins by resorufin dye based spectrofluorimetry (reference value: 100%); type: ADME; details: recombinant CYP1A1, probe 7-ethoxyresorufin, read-out: Activity
CYP1A1 [26] = target: T1, CYP1A1; test: Inhibition of recombinant CYP1A1 (unknown origin) assessed as residual enzyme activity using 7-ethoxyresorufin as substrate at 100 uM incubated for 15 mins by resorufin dye based spectrofluorimetry (reference value: 100%); type: ADME; details: recombinant CYP1A1, probe 7-ethoxyresorufin, read-out: Activity
Cytochrome P450 1A1 [27] = target: T2, Cytochrome P450 1A1 (Homo sapiens, UniProt P04798); test: Inhibition of recombinant CYP1A1 (unknown origin) assessed as decrease in EROD activity using 7-ethoxyresorufin as substrate upto 100 uM incubated for 15 mins by resorufin dye based spectrofluorimetry; type: ADME; details: recombinant enzyme, 0.25 h
T2 sequence (P04798 whole entry): T1 sequence (P04798 whole entry)

Cytochrome P450 1A1 [28] = target: T2, Cytochrome P450 1A1; test: Inhibition of recombinant CYP1A1 (unknown origin) assessed as decrease in EROD activity using 7-ethoxyresorufin as substrate incubated for 15 mins by resorufin dye based spectrofluorimetry; type: ADME

Structure (SMILES) | GI50 (MDA-MB-468 [1]) | TGI (MDA-MB-468 [1]) | CC50 (MDA-MB-468 [1]) | GI50 (MCF7 [2]) | TGI (MCF7 [2]) | CC50 (MCF7 [2]) | GI50 (MDA-MB-435 [3]) | LC50 (MDA-MB-435 [3]) | TGI (MDA-MB-435 [3]) | GI50 (NCI-H226 [4]) | LC50 (concentration killing 50% of cells) (NCI-H226 [4]) | TGI (NCI-H226 [4]) | growth at 0.1 µM (MDA-MB-468 [5]) | growth at 1 µM (MDA-MB-468 [6]) | growth at 10 µM (MDA-MB-468 [7]) | growth at 100 µM (MDA-MB-468 [8]) | growth at 0.1 µM (MCF7 [9]) | growth at 1 µM (MCF7 [10]) | growth at 10 µM (MCF7 [11]) | growth at 100 µM (MCF7 [12]) | further results
Cc1nn(C[C@@H](O)COc2ccc3c(C)cc(=O)oc3c2)c(C)c1C | 76.6 µM | > 100 µM | > 100 µM | 52.5 µM | > 100 µM | > 100 µM | > 100 µM | > 100 µM | > 100 µM | 96.5 µM | > 100 µM | > 100 µM | 100% | 98% | 94.8% | 33.7% | 80.4% | 74.2% | 69.2% | 25.3% | growth at 0.1 µM (NCI-H226 [13]): 88.9%; growth at 1 µM (NCI-H226 [14]): 77.5%; growth at 10 µM (NCI-H226 [15]): 72.8%; growth at 100 µM (NCI-H226 [16]): 49.1%; growth at 0.1 µM (MDA-MB-435 [17]): 100%; growth at 1 µM (MDA-MB-435 [18]): 100%; growth at 10 µM (MDA-MB-435 [19]): 100%; growth at 100 µM (MDA-MB-435 [20]): 77.9%; activity at 0.25 h, 0.01 µM (CYP1A1 [21]): 99.3%; activity at 0.25 h, 0.1 µM (CYP1A1 [22]): 98.4%; activity at 0.25 h, 1 µM (CYP1A1 [23]): 96.7%; activity at 0.25 h, 10 µM (CYP1A1 [24]): 96.7%; activity at 0.25 h, 50 µM (CYP1A1 [25]): 101%; activity at 0.25 h, 100 µM (CYP1A1 [26]): 103%; inhibition (INH) (Cytochrome P450 1A1 [27]): Not Active
Cc1cc(C)n(C(=O)CCn2nc(C)c(Cl)c2C)n1 | > 100 µM | > 100 µM | > 100 µM | 54.8 µM | > 100 µM | > 100 µM | > 100 µM | > 100 µM | > 100 µM | > 100 µM | > 100 µM | > 100 µM | 100% | 100% | 97.7% | 68.3% | 85.9% | 78.7% | 74% | 22.9% | pIC50 (Cytochrome P450 1A1 [28]): 5.00; growth at 0.1 µM (NCI-H226 [13]): 80.4%; growth at 1 µM (NCI-H226 [14]): 77.6%; growth at 10 µM (NCI-H226 [15]): 71.4%; growth at 100 µM (NCI-H226 [16]): 55.6%; growth at 0.1 µM (MDA-MB-435 [17]): 100%; growth at 1 µM (MDA-MB-435 [18]): 100%; growth at 10 µM (MDA-MB-435 [19]): 100%; growth at 100 µM (MDA-MB-435 [20]): 84.9%; activity at 0.25 h, 0.01 µM (CYP1A1 [21]): 79.9%; activity at 0.25 h, 0.1 µM (CYP1A1 [22]): 62.2%; activity at 0.25 h, 1 µM (CYP1A1 [23]): 52.9%; activity at 0.25 h, 10 µM (CYP1A1 [24]): 50.6%; activity at 0.25 h, 50 µM (CYP1A1 [25]): 36.4%; activity at 0.25 h, 100 µM (CYP1A1 [26]): 35.1%
